In ChEMBL document CHEMBL4219204, “Structure-based design and discovery of potent and selective KDM5 inhibitors” (Bioorg Med Chem Lett, 2018):

Molecular target: T1, Lysine-specific demethylase 4A (Homo sapiens, UniProt O75164)
T1 sequence (O75164 whole entry): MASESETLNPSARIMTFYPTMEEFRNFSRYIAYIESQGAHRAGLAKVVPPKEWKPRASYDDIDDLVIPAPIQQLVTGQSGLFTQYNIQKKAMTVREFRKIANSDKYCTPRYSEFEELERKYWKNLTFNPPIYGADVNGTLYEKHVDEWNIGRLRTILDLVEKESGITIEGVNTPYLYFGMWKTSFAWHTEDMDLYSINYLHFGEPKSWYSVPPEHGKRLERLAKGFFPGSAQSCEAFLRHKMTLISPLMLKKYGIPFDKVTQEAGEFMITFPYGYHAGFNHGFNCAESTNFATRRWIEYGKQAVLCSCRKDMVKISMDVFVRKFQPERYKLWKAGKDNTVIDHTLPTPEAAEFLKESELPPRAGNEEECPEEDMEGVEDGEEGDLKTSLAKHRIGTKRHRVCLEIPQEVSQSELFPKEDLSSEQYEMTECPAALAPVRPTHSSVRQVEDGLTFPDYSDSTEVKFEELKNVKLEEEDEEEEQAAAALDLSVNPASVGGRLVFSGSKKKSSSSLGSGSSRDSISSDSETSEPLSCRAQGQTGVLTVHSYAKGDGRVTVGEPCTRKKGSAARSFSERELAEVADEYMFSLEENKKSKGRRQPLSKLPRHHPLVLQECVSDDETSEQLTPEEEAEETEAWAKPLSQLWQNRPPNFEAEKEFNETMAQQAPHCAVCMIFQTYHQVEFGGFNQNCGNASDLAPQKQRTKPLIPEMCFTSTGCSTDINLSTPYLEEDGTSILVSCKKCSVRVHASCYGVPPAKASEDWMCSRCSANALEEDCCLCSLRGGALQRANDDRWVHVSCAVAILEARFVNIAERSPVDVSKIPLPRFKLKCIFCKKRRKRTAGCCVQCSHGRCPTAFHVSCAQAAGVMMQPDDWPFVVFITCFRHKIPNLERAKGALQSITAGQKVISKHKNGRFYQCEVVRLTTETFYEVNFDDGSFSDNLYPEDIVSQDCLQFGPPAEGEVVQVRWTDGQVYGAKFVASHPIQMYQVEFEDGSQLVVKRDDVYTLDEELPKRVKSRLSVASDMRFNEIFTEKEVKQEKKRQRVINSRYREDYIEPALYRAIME
Experiment: Inhibition of KDM4A (unknown origin)

IC50: 0.099 µM
SMILES: Cc1cc(Cl)ccc1COc1ccnn1-c1cc(C(=O)O)ccn1
